From patent US7994172B2, “[1H-pyrazolo[3, 4-D]pyrimidin-4-yl]-piperidine or -piperazine compounds as serine-theoronine kinase modulators (P70s6k, Atk1 and Atk2) for the treatment of immunological, inflammatory and proliferative diseases” (Exelixis, Inc., priority 2004, dated 2011) come the findings set out here.

Holding throughout (type): biochemical
Assay [1] addresses T1, human p70S6 kinase (p70S6K, kinase domain residues 1-421, T412E mutation) (Homo sapiens, UniProt P23443, T412E).
T1 construct: human p70S6 kinase domainresidues 1-421, containing a T412E mutation; made in house
The assay is described as follows: p70S6 kinase assay, Luciferase-Coupled Chemiluminescent Kinase assay (LCCA). To be noted: 5 μM ATP, 12 nM p70S6K; read-out: p70S6K inhibition IC50. Here is the method:
(§1) Kinase activity and compound inhibition are investigated using one or more of the three assay formats described below. The ATP concentrations for each assay are selected to be close to the Michaelis-Menten constant (KM) for each individual kinase. Dose-response experiments are performed at 10 different inhibitor concentrations in a 384-well plate format. The data are fitted to four-parameter equation (2) below; where Y is the observed signal, X is the inhibitor concentration, Min is the background signal in the absence of enzyme (0% enzyme activity), Max is the signal in the absence of inhibitor (100% enzyme activity), IC50 is the inhibitor concentration at 50% enzyme inhibition and H represents the empirical Hill's slope to measure the cooperativity. Typically H is close to unity. Y=Min+(Max−Min)/(1+(X/IC50)^H) Equation (2) p70S6 Kinase Assay
Biochemical activity of p70S6 kinase was assessed using a Luciferase-Coupled Chemiluminescent Kinase assay (LCCA) format. Kinase activity was measured as the percent ATP remaining following the kinase reaction. Remaining ATP was detected by luciferase-luciferin-coupled chemiluminescence. Specifically, the reaction was initiated by mixing test compounds, 5 μM ATP, 5 μM RRRLSSLRA peptide and 12 nM p70S6K (baculovirus expressed human p70S6 kinase domainresidues 1-421, containing a T412E mutation) in a 20 uL assay buffer (20 mM Tris-HCL pH 7.5, 10 mM MgCl2, 0.02% Triton X-100, 100 mM DTT, 2 mM MnCl2). The mixture is incubated at ambient temperature for 2 hours after which 20 μL luciferase-luciferin mix is added and the chemiluminescent signal read using a Wallac Victor^2 reader. The luciferase-luciferin mix consists of 50 mM HEPES, pH 7.8, 8.5 μg/mL oxalic acid (pH 7.8), 5 (or 50) mM DTT, 0.4% Triton X-100, 0.25 mg/mL coenzyme A, 63 uM AMP, 28 μg/mL luciferin and 40,000 units/mL luciferase.

Assay [2] addresses T2, human Akt1 kinase (kinase domain residues R144-A480, activated with PDK1) (Homo sapiens, UniProt P31749).
T2 construct: made in house
The assay is described as follows: Akt1 kinase assay, Luciferase-Coupled Chemiluminescent Kinase assay (LCCA). As to conditions: 1 μM ATP, 1.3 nM Akt1; read-out: Akt-1 inhibition IC50. How it is done: as §1
Biochemical activity of Akt1 kinase was assessed using a Luciferase-Coupled Chemiluminescent Kinase assay (LCCA) format. Kinase activity was measured as the percent ATP remaining following the kinase reaction. Remaining ATP was detected by luciferase-luciferin-coupled chemiluminescence. Specifically, the reaction was initiated by mixing test compounds, 1 μM ATP, 5 μM crosstide peptide and 1.3 nM Akt1 (baculovirus expressed human Akt1 kinase domain residues R144-A480, activated with PDK1) in a 20 uL assay buffer (20 mM Tris-HCL pH 7.5, 10 mM MgCl2, 0.01% Triton X-100, 1 mM DTT, 3 mM MnCl2). The mixture is incubated at ambient temperature for 3 hours after which 20 μL luciferase-luciferin mix is added and the chemiluminescent signal read using a Wallac Victor2 reader. The luciferase-luciferin mix consists of 50 mM HEPES, pH 7.8, 8.5 μg/mL oxalic acid (pH 7.8), 5 (or 50) mM DTT, 0.4% Triton X-100, 0.25 mg/mL coenzyme A, 63 uM AMP, 28 μg/mL luciferin and 40,000 units/mL luciferase.

Assay [3] has as its target T3, human Akt2 kinase (kinase domain residues K146-R480) (Homo sapiens, UniProt P31751).
T3 construct: human Akt2 kinase domain residues K146-R480; made in house
The assay is described as follows: Akt2 kinase assay, Luciferase-Coupled Chemiluminescent Kinase assay (LCCA). As to conditions: 2 μM ATP, 10 nM Akt2; read-out: Akt-2 inhibition IC50. How it is done:
as §1
Biochemical activity of Akt2 kinase was assessed using a Luciferase-Coupled Chemiluminescent Kinase assay (LCCA) format. Kinase activity was measured as the percent ATP remaining following the kinase reaction. Remaining ATP was detected by luciferase-luciferin-coupled chemiluminescence. Specifically, the reaction was initiated by mixing test compounds, 2 μM ATP, 5 μM crosstide peptide and 10 nM Akt2 (baculovirus expressed human Akt2 kinase domain residues K146-R480) in a 20 uL assay buffer (20 mM Tris-HCL pH 7.5, 10 mM MgCl2, 0.03% Triton X-100, 1 mM DTT, 3 mM MnCl2). The mixture is incubated at ambient temperature for 2 hours after which 20 μL luciferase-luciferin mix is added and the chemiluminescent signal read using a Wallac Victor2 reader. The luciferase-luciferin mix consists of 50 mM HEPES, pH 7.8, 8.5 μg/mL oxalic acid (pH 7.8), 5 (or 50) mM DTT, 0.4% Triton X-100, 0.25 mg/mL coenzyme A, 63 uM AMP, 28 μg/mL luciferin and 40,000 units/mL luciferase.

SMILES strings stand for the structures. Some results are limits rather than exact numbers.

T3 sequence (P31751 146-480): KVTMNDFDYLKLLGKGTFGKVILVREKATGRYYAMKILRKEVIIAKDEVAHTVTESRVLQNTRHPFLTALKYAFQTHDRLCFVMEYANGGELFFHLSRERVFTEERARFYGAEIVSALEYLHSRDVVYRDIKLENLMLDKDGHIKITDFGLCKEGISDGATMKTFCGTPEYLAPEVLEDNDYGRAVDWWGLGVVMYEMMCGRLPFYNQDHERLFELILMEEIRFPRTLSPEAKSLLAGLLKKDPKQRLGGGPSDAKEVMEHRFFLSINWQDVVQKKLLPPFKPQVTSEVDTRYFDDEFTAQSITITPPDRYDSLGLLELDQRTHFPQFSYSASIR
T2 sequence (P31749 144-480): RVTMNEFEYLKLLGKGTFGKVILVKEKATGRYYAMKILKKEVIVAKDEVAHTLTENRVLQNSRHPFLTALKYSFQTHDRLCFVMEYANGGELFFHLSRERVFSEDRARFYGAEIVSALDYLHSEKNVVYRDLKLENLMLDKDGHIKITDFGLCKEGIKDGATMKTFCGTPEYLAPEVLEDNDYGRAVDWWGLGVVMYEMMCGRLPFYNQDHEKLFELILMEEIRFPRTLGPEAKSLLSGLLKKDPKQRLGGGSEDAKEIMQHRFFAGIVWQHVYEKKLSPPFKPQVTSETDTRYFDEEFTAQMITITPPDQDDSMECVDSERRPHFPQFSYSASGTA
T1 sequence (P23443 1-421 T412E): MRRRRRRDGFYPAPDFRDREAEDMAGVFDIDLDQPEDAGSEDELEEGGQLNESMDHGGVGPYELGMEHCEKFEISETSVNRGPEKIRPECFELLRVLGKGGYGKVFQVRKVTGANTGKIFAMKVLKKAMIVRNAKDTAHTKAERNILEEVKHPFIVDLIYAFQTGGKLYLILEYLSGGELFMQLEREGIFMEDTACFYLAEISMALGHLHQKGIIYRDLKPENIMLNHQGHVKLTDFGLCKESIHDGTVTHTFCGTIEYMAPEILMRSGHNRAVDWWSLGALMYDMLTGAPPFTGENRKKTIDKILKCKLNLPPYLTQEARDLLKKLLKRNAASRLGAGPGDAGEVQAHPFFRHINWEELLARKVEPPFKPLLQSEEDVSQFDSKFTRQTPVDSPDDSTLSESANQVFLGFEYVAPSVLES

With `CN(C)CCOC(c1ccc(Cl)cc1)C1CCN(c2ncnc3[nH]nc(Br)c23)CC1` (stereo not drawn) [Entry 2, 2-{[[1-(3-bromo-1H-pyrazolo[3,4-d]pyrimidin-4-yl)piperidin-4-yl](4-chlorophenyl)methyl]oxy}-N,N-dimethylethanamine], the IC50 in assay [1] is < 50 nM; in assay [2], < 50 nM; in assay [3], 50 to 500 nM.

`CC(C)(C)c1ccc(CN2CCN(c3ncnc4[nH]nc(Br)c34)CC2)cc1` [Entry 7, 3-bromo-4-(4-{[4-(1,1-dimethylethyl)phenyl]methyl}piperazin-1-yl)-1H-pyrazolo[3,4-d]pyrimidine]: the IC50 in assay [1] was < 50 nM; in assay [2] it was > 2000 nM; in assay [3], > 2000 nM.

`FC(F)(F)c1ccc(CN2CCN(c3ncnc4[nH]nc(Br)c34)CC2)cc1` [Entry 11, 3-bromo-4-(4-{[4-(trifluoromethyl)phenyl]methyl}piperazin-1-yl)-1H-pyrazolo[3,4-d]pyrimidine]: the results for the IC50 in assay [1], in assay [2] and in assay [3] were < 50 nM, 500 to 2000 nM and > 2000 nM, respectively.

In the case of `Clc1ccc(CN2CCN(c3ncnc4[nH]nc(Br)c34)CC2)cc1` [Entry 19, 3-bromo-4-{4-[(4-chlorophenyl)methyl]piperazin-1-yl}-1H-pyrazolo[3,4-d]pyrimidine], the IC50 in assay [1] is < 50 nM; in assay [2], 50 to 500 nM; in assay [3] it was > 2000 nM.

Take `Clc1ccc(CN2CCN(c3ncnc4[nH]nc(Br)c34)CC2)cc1Cl` [Entry 27, 3-bromo-4-{4-[(3,4-dichlorophenyl)methyl]piperazin-1-yl}-1H-pyrazolo[3,4-d]pyrimidine]: the values for the IC50 in assay [1], in assay [2] and in assay [3] were < 50 nM, 50 to 500 nM and > 2000 nM, respectively.

Regarding `Brc1n[nH]c2ncnc(N3CCN(Cc4ccc(-c5ccccc5)cc4)CC3)c12` [Entry 30, 4-[4-(biphenyl-4-ylmethyl)piperazin-1-yl]-3-bromo-1H-pyrazolo[3,4-d]pyrimidine], the results for the IC50 in assay [1], in assay [2] and in assay [3] were < 50 nM, > 2000 nM and > 2000 nM, respectively.

Consider `C[C@H]1CN(c2ncnc3[nH]nc(Br)c23)CCN1Cc1ccc(Cl)cc1` [Entry 31, 3-bromo-4-{(3S)-4-[(4-chlorophenyl)methyl]-3-methylpiperazin-1-yl}-1H-pyrazolo[3,4-d]pyrimidine], for which the concentration for half-maximal inhibition (IC50) in assay [1] is < 50 nM; in assay [2], 500 to 2000 nM; in assay [3] it was > 2000 nM.

As for `COc1ccc(CN2CCN(c3ncnc4[nH]nc(Br)c34)CC2)cc1` [Entry 32, 3-bromo-4-(4-{[4-(methyloxy)phenyl]methyl}piperazin-1-yl)-1H-pyrazolo[3,4-d]pyrimidine], the IC50 was < 50 nM in assay [1], 500 to 2000 nM in assay [2] and > 2000 nM in assay [3].

With `O=C(Nc1cccc(C(F)(F)F)c1)N1CCN(c2ncnc3[nH]nc(Br)c23)CC1` [Entry 33, 4-(3-bromo-1H-pyrazolo[3,4-d]pyrimidin-4-yl)-N-[3-(trifluoromethyl)phenyl]piperazine-1-carboxamide], the half-maximal inhibitory concentration (IC50) in assay [1] was < 50 nM; in assay [2], > 2000 nM; in assay [3] it was > 2000 nM.

For `Fc1ccc(CN2CCN(c3ncnc4[nH]nc(Br)c34)CC2)cc1` [Entry 34, 3-bromo-4-{4-[(4-fluorophenyl)methyl]piperazin-1-yl}-1H-pyrazolo[3,4-d]pyrimidine], the IC50 in assay [1] is < 50 nM; in assay [2] it was 500 to 2000 nM; in assay [3] it was > 2000 nM.

As to `Brc1n[nH]c2ncnc(N3CCN(Cc4ccc5c(c4)OCCO5)CC3)c12` [Entry 36, 3-bromo-4-[4-(2,3-dihydro-1,4-benzodioxin-6-ylmethyl)piperazin-1-yl]-1H-pyrazolo[3,4-d]pyrimidine], the half-maximal inhibitory concentration (IC50) in assay [1] was < 50 nM; in assay [2], > 2000 nM; in assay [3], > 2000 nM.

In the case of `Clc1ccc([C@H](OCCN2CCOCC2)C2CCN(c3ncnc4[nH]nc(Br)c34)CC2)cc1` [Entry 95, 3-bromo-4-(4-{(R)-(4-chlorophenyl)[(2-morpholin-4-ylethyl)oxy]methyl}piperidin-1-yl)-1H-pyrazolo[3,4-d]pyrimidine], the concentration for half-maximal inhibition (IC50) in assay [1] and in assay [2] was < 50 nM in each case.

As to `CN(Cc1ccco1)C(c1ccc(F)cc1)C1CCN(c2ncnc3[nH]nc(Br)c23)CC1` (stereo not drawn) [Entry 96, 1-[1-(3-bromo-1H-pyrazolo[3,4-d]pyrimidin-4-yl)piperidin-4-yl]-1-(4-fluorophenyl)-N-(furan-2-ylmethyl)-N-methylmethanamine], the half-inhibitory concentration (IC50) in assay [1] was in the range of 50 to 500 nM; in assay [2] it was 500 to 2000 nM.

As to `CN(Cc1ccccn1)C(c1ccc(F)cc1)C1CCN(c2ncnc3[nH]nc(Br)c23)CC1` (stereo not drawn) [Entry 97, 1-[1-(3-bromo-1H-pyrazolo[3,4-d]pyrimidin-4-yl)piperidin-4-yl]-1-(4-fluorophenyl)-N-methyl-N-(pyridin-2-ylmethyl)methanamine], the 50% inhibitory concentration (IC50) in assay [1] lay within 50 to 500 nM; in assay [2] it was 500 to 2000 nM.

In the case of `CN(C)c1ccc(CN(C)C(c2ccc(F)cc2)C2CCN(c3ncnc4[nH]nc(Br)c34)CC2)cc1` (stereo not drawn) [Entry 98, 4-{[{[1-(3-bromo-1H-pyrazolo[3,4-d]pyrimidin-4-yl)piperidin-4-yl](4-fluorophenyl)methyl}(methyl)amino]methyl}-N,N-dimethylaniline], the IC50 in assay [1] is < 50 nM; in assay [2], 50 to 500 nM.

As to `OC(c1ccc2cc[nH]c2c1)N1CCN(c2ncnc3[nH]nc(Br)c23)CC1` (stereo not drawn) [Entry 99, [4-(3-bromo-1H-pyrazolo[3,4-d]pyrimidin-4-yl)piperazin-1-yl](1H-indol-6-yl)methanol], the IC50 in assay [1] fell in the range of 50 to 500 nM; in assay [2] it was 500 to 2000 nM.

Take `Fc1cc([C@H](OCCN2CCCC2)C2CCN(c3ncnc4[nH]nc(Br)c34)CC2)ccc1Cl` [Entry 100, 3-bromo-4-(4-{(R)-(4-chloro-3-fluorophenyl)[(2-pyrrolidin-1-ylethyl)oxy]methyl}piperidin-1-yl)-1H-pyrazolo[3,4-d]pyrimidine]: the IC50 in assay [1] and in assay [2] was < 50 nM throughout.

With `Clc1ccc(OC2CCN(c3ncnc4[nH]nc(Br)c34)CC2)cc1` [Entry 101, 3-bromo-4-{4-[(4-chlorophenyl)oxy]piperidin-1-yl}-1H-pyrazolo[3,4-d]pyrimidine], the IC50 in assay [1] was 50 to 500 nM; in assay [2] it was 500 to 2000 nM.

For the molecule `CCN(CC)CCO[C@@H](c1ccc(Cl)cc1)C1CCN(c2ncnc3[nH]nc(Br)c23)CC1` [Entry 102, 2-{[(R)-[1-(3-bromo-1H-pyrazolo[3,4-d]pyrimidin-4-yl)piperidin-4-yl](4-chlorophenyl)methyl]oxy}-N,N-diethylethanamine], the concentration for half-maximal inhibition (IC50) in assay [1] and in assay [2] was < 50 nM each time.

Regarding `Clc1ccc(OC2CCN(c3ncnc4[nH]nc(Br)c34)CC2)c(NCCN2CCCC2)c1` [Entry 103, 2-{[1-(3-bromo-1H-pyrazolo[3,4-d]pyrimidin-4-yl)piperidin-4-yl]oxy}-5-chloro-N-(2-pyrrolidin-1-ylethyl)aniline], the half-maximal inhibitory concentration (IC50) in assay [1] and in assay [2] was 50 to 500 nM each time.
